Reference: ChEMBL document CHEMBL1201862, “PubChem BioAssay data set” (2004)
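Grown in 96-well plates, cells were treated for 48 hours with each compound at five concentrations. Insufficient inhibition: endpoint recorded as highest concentration tested. Here, GI50 denotes the concentration required for 50% inhibition of growth.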 Calls of active or inactive are those of the source. No stated cut-off is given here; in the data, active = GI50 up to about 1.1 µM and inactive = higher.

Key:
Assay in all cases: NCI-60 cell line screen, 48 h
[1] = system: BT-549
[2] = system: CCRF-CEM
[3] = system: HCT-116
[4] = system: HL-60
[5] = system: K562
[6] = system: MCF7
[7] = system: MOLT-4
[8] = system: Malme-3M
[9] = system: NCI-H23
[10] = system: NCI/ADR-RES
[11] = system: OVCAR-8
[12] = system: RXF 393
[13] = system: SF-295
[14] = system: SN12C
[15] = system: SNB-19
[16] = system: U-251
[17] = system: UACC-257
[18] = system: UO-31
[19] = system: LOX IMVI
[20] = system: SF-539

| SMILES | GI50 [1] | GI50 [2] | GI50 [3] | GI50 [4] | GI50 [5] | GI50 [6] | GI50 [7] | GI50 [8] | GI50 [9] | GI50 [10] | GI50 [11] | GI50 [12] | GI50 [13] | GI50 [14] | GI50 [15] | GI50 [16] | GI50 [17] | GI50 [18] | GI50 [19] | GI50 [20] |
| --- | --- | --- | --- | --- | --- | --- | --- | --- | --- | --- | --- | --- | --- | --- | --- | --- | --- | --- | --- | --- |
| NC(=S)N/N=C1\CCCCc2ccccc21 | > 10 µM (inactive) | > 10 µM (inactive) | > 10 µM (inactive) | > 10 µM (inactive) | > 10 µM (inactive) | > 10 µM (inactive) | > 10 µM (inactive) | > 10 µM (inactive) | > 10 µM (inactive) | > 10 µM (inactive) | > 10 µM (inactive) | > 10 µM (inactive) | > 10 µM (inactive) | > 10 µM (inactive) | > 10 µM (inactive) | > 10 µM (inactive) | > 10 µM (inactive) | > 10 µM (inactive) |  |  |
| NNC(=O)c1nn[nH]c1C(=O)NN | 13.6 µM (inactive) | > 100 µM (inactive) | > 100 µM (inactive) | > 100 µM (inactive) | > 100 µM (inactive) | > 100 µM (inactive) | > 100 µM (inactive) | 15.1 µM (inactive) | > 100 µM (inactive) | > 100 µM (inactive) | > 100 µM (inactive) | > 100 µM (inactive) | > 100 µM (inactive) | > 100 µM (inactive) | > 100 µM (inactive) | > 100 µM (inactive) | > 100 µM (inactive) | 19 µM (inactive) |  |  |
| CCOC(=O)CC1C(C(=O)OCC)=Cn2c([nH]c3cccc4cccc2c43)=C1C(=O)OCC (stereo unspecified) | > 100 µM (inactive) | > 100 µM (inactive) | > 100 µM (inactive) | 25.3 µM (inactive) | > 100 µM (inactive) | > 100 µM (inactive) | > 100 µM (inactive) |  | > 100 µM (inactive) | > 100 µM (inactive) | > 100 µM (inactive) | > 100 µM (inactive) | > 100 µM (inactive) | > 100 µM (inactive) | > 100 µM (inactive) | > 100 µM (inactive) | > 100 µM (inactive) | > 100 µM (inactive) | > 100 µM (inactive) |  |
| Cc1nc2c(sc(=S)n2-c2ccccc2)c2nc3ncccc3n12 | > 100 µM (inactive) | > 100 µM (inactive) | > 100 µM (inactive) | > 100 µM (inactive) | > 100 µM (inactive) | > 100 µM (inactive) | > 100 µM (inactive) | > 100 µM (inactive) | > 100 µM (inactive) | > 100 µM (inactive) | > 100 µM (inactive) | 34.8 µM (inactive) | 77.4 µM (inactive) | 46.2 µM (inactive) | 54.5 µM (inactive) | 32.6 µM (inactive) | > 100 µM (inactive) | > 100 µM (inactive) | > 100 µM (inactive) |  |
| NC(=O)CNC(=O)[C@@H]1CC(OCCC(=O)O)CN1C(=O)C1CCCN1C(=O)OCc1ccccc1 (stereo partly specified) | > 100 µM (inactive) | > 100 µM (inactive) | > 100 µM (inactive) | > 100 µM (inactive) | > 100 µM (inactive) | > 100 µM (inactive) | > 100 µM (inactive) | > 100 µM (inactive) | > 100 µM (inactive) | > 100 µM (inactive) | > 100 µM (inactive) | > 100 µM (inactive) | > 100 µM (inactive) | > 100 µM (inactive) | > 100 µM (inactive) | > 100 µM (inactive) | > 100 µM (inactive) | > 100 µM (inactive) | > 100 µM (inactive) |  |
| O=C1C(Sc2ccc3ccccc3c2)=C(Sc2ccc3ccccc3c2)C(=O)c2ccccc21 | 12 µM (inactive) |  | 7.59 µM (inactive) | 1.1 µM (active) | 3.47 µM (inactive) | 11.2 µM (inactive) | 2.32 µM (inactive) |  | 5.13 µM (inactive) | 13.2 µM (inactive) | 10.5 µM (inactive) | 14.8 µM (inactive) |  | 12.1 µM (inactive) | 8.09 µM (inactive) | 6.21 µM (inactive) | 3.57 µM (inactive) | 3.95 µM (inactive) | 11.4 µM (inactive) | 10.2 µM (inactive) |
| N#CCCN(C(=O)Nc1ccc(NC(=O)N(CCC#N)c2ccccc2)cc1)c1ccccc1 | > 100 µM (inactive) |  | > 100 µM (inactive) | > 100 µM (inactive) | > 100 µM (inactive) | > 100 µM (inactive) | > 100 µM (inactive) | > 100 µM (inactive) | > 100 µM (inactive) | > 100 µM (inactive) | > 100 µM (inactive) | 92.7 µM (inactive) | > 100 µM (inactive) | > 100 µM (inactive) | > 100 µM (inactive) | > 100 µM (inactive) |  | > 100 µM (inactive) | > 100 µM (inactive) |  |
| COc1cc(C2S/C(=C/c3ccccc3)C(=O)N2c2ccc(Cl)c(Cl)c2)cc(OC)c1OC (stereo unspecified) | 42.3 µM (inactive) | 1.36 µM (inactive) | 19.3 µM (inactive) | 15.7 µM (inactive) | 15.2 µM (inactive) | 22.3 µM (inactive) | 28.8 µM (inactive) | 42 µM (inactive) | 48.9 µM (inactive) | 32.6 µM (inactive) | > 72.3 µM (inactive) | > 51.8 µM (inactive) | 15.8 µM (inactive) | > 61.4 µM (inactive) | 59.2 µM (inactive) | 38.7 µM (inactive) | > 70.6 µM (inactive) | 33.3 µM (inactive) | 19.2 µM (inactive) |  |
| Cc1nn2c(N)cc(=O)nc2nc1/C=C/c1ccc(N(C)C)cc1 | > 32 µM (inactive) | < 0.01 µM (active) | 12 µM (inactive) | < 0.01 µM (active) | 9.08 µM (inactive) | 3.92 µM (inactive) | > 52 µM (inactive) | 5.2 µM (inactive) | 10.4 µM (inactive) | > 100 µM (inactive) | > 25.2 µM (inactive) | 98.6 µM (inactive) | > 79.3 µM (inactive) | > 65.6 µM (inactive) | 29.9 µM (inactive) | > 22.1 µM (inactive) | 17.3 µM (inactive) | 3.94 µM (inactive) | 4.11 µM (inactive) |  |
| Cc1ccc([N+](=O)[O-])cc1S(=O)(=O)Nc1ccc(C2=NN(S(=O)(=O)c3cc([N+](=O)[O-])ccc3C)C(c3ccccc3)C2)cc1 (stereo unspecified) | 21.8 µM (inactive) | 36.1 µM (inactive) | 18.5 µM (inactive) | 35.6 µM (inactive) | 30.1 µM (inactive) | 30.8 µM (inactive) | 30 µM (inactive) | 17.7 µM (inactive) | 24.2 µM (inactive) | 25.5 µM (inactive) | 42.2 µM (inactive) | 36.6 µM (inactive) | 21.7 µM (inactive) | 28.2 µM (inactive) | 36.4 µM (inactive) | 29.8 µM (inactive) | 24.8 µM (inactive) | 28.6 µM (inactive) | 34.3 µM (inactive) |  |
| COc1c(-c2ccc(F)cc2)oc2c(CC(=O)O)cccc2c1=O | > 100 µM (inactive) | > 100 µM (inactive) | > 100 µM (inactive) | > 100 µM (inactive) | > 100 µM (inactive) | > 100 µM (inactive) | > 100 µM (inactive) | > 100 µM (inactive) | 45.5 µM (inactive) | > 100 µM (inactive) | > 100 µM (inactive) | > 100 µM (inactive) | > 100 µM (inactive) | > 100 µM (inactive) |  | > 100 µM (inactive) | > 100 µM (inactive) | 40.9 µM (inactive) |  | > 100 µM (inactive) |
